The values that follow come from US11407689B2, “Black urea enhanced efficiency controllable release fertilizer compositions” (priority 2018, dated 2022).

Experiment [1] relates to arginine production in plants. The following applies: cited from earlier work.
Experiment [2] has as its system rice. Put plainly: Greenhouse Rice Test (rice grown in 5-gallon buckets, chlorophyll by SPAD 501 meter and rough rice yield). It counts as in vivo. The following applies: for Average of Chlorophyll Measurements: relative chlorophyll in leaves, SPAD 501 meter. On the procedure: This test was conducted to compare the use of Chip Urea and Black Chip Urea to the use of ordinary granular urea for growing rice. Chip Urea, Black Chip Urea, and plain urea fertilizers were tested at Applied Chemical Technology to fertilize rice grown in 5-gallon buckets in a greenhouse. The rice was fertilized following practices used to grow rice commercially in Arkansas. These practices include fertilizing with starter fertilizers and then dry seeding the rice. Nitrogen is then applied at flooding and again when the plants enter the reproductive phase. The fertilizer is flooded into the soil when the rice plants reach the 4-leaf stage by applying the granular fertilizer to the surface and then the applying the floodwater.
The rice for the tests was grown in a climate controlled greenhouse. […] Each fertilizer was tested with five replicates placed randomly on the table. The codes for labeling the tests are given in Example 5. The bucket placement for the tests is shown in Example 6.
Top soil was purchased from Shoals Dirt near Florence, Ala. This soil was mixed and sieved using a 3 MG screen. Soil samples were taken and sent for testing to the University of Arkansas. Each five gallon bucket was filled with 39 pounds of soil and placed on the greenhouse table with no space between the buckets.
Based on the soil test results, each bucket received pre-fertilizer that included urea, triple super phosphate (TSP), potassium chloride, Epsom salts (magnesium sulfate heptahydrate), and zinc sulfate.
The TSP fertilizer was applied first. This was done by weighing out 3.58 g of TSP for each bucket and then mixing the TSP thoroughly into the top 3-4 inches of soil.
Next, the remaining starter fertilizer was applied to each bucket by making a solution of the urea, potassium chloride, zinc sulfate, and Epson salts according to the values presented in Table A of Example 5. This solution was made so that the amount of the solution needed to supply the correct amount of each nutrient to each bucket was found in 200 mL of the solution. The 200 mL of solution was then evenly poured over the surface of the soil in each bucket.
The pre-fertilizer was applied. The rice was then planted by placing 10-15 seeds on the surface of the soil and using a pencil to push the rice seed ¾ inch beneath the soil surface. The hole was filled with sand. After planting, the soil moisture was monitored. If the buckets needed to be watered, then all of the buckets are watered with the same amount of water by volume. For all of the watering throughout the tests, rain water was used. […]
The fertilizers used were products made at ACT in the pilot plant tests. […] The amounts of each fertilizer were based on the nitrogen measured in the fertilizer by LECO so that every bucket received the same amount of nitrogen. […]

Consider `N#CN` [acid cyanamide ion], for which the “Effectiveness in stimulating arginine production relative to urea” value in experiment [1] is on record as 20 times.
`NC(N)=O` [Urea, urea]: the “Average of Chlorophyll Measurements” value in experiment [2] (July 19, 30 readings per bucket, five replicates) was determined as 46.8; in experiment [2] (September 21 (Friday before harvest)), 36.4. Besides, the “% Increase in Yield” value in experiment [2] (average yield per bucket versus plain urea) came out at 0.0%. In addition, the “Average Rough Rice Yield per Bucket, Average Dry Weight at Harvest” value in experiment [2] (panicles dried at 50° C. for two days, same weight of N per bucket) is 64.42 g.
